In patent publication US10590078B2, “Sodium channel blockers” (Daewoong Pharmaceutical Co., Ltd., priority 2015, dated 2020):

Target: human sodium ion channel 1.7 (hNav1.7) (Homo sapiens, UniProt Q15858)
Test: Blocking effect against sodium ion channel Nav1.7, IonFlux16 auto patch clamp in hNav1.7 HEK293 cells
Type: cell-based
Conditions: hNav1.7 HEK293 cells; inhibition of peak current after 50 seconds treatment; eight concentrations; read-out: IC50

Chain of human sodium ion channel 1.7 (hNav1.7) (Q15858 whole entry): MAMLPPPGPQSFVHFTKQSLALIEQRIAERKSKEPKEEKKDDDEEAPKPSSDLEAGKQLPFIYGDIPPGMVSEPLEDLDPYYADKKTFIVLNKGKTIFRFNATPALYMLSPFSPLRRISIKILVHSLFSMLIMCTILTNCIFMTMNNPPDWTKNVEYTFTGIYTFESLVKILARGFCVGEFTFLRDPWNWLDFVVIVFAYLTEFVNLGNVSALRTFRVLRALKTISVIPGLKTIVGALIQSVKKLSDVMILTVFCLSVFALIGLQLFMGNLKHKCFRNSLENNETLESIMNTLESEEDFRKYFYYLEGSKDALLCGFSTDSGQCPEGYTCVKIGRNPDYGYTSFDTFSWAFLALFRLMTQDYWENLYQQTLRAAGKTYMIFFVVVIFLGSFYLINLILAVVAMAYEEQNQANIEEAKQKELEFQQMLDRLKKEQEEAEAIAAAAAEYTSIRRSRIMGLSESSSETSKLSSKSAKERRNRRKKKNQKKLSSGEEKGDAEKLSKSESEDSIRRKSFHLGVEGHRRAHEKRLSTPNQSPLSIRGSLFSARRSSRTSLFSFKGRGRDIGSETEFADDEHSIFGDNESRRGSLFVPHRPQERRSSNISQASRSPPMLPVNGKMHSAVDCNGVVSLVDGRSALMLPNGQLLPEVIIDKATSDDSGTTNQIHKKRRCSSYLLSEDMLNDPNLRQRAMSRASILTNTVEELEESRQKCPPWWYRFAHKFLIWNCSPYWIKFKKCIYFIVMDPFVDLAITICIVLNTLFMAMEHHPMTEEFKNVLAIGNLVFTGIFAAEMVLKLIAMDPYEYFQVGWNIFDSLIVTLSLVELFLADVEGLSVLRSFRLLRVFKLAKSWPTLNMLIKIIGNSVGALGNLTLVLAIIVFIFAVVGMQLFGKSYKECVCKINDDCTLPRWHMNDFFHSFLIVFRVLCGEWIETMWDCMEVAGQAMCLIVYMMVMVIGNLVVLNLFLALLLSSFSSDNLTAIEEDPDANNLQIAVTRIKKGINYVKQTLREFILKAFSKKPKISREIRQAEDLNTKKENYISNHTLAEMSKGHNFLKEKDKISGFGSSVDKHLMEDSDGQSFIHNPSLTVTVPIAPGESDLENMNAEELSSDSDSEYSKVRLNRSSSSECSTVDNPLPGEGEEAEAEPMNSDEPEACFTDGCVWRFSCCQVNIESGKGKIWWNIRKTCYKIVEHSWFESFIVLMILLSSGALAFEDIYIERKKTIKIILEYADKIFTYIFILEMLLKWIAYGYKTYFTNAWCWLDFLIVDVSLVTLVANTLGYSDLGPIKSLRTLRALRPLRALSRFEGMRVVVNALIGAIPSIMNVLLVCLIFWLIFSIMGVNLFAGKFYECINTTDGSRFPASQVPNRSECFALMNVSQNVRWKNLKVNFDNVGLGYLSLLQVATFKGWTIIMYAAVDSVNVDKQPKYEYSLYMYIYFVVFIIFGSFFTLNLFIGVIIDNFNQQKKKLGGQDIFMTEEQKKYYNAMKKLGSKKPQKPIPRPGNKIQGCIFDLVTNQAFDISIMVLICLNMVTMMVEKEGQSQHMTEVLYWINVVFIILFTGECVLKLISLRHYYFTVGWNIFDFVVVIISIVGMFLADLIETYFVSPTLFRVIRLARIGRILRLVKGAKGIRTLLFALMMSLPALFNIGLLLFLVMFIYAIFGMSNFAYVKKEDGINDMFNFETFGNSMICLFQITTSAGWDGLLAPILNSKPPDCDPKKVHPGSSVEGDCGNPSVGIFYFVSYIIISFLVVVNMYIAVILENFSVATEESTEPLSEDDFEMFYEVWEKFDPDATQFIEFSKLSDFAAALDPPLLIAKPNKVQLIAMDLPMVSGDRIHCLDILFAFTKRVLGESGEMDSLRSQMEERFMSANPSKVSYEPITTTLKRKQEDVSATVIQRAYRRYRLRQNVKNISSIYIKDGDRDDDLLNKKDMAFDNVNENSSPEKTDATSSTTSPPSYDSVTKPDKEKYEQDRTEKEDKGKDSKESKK

Row | IC50 | SMILES
1 | 752 nM | CS(=O)(=O)NC(=O)c1cc(Cl)c(-n2nc(Cl)c3cc(-c4ccc(C#N)cc4)ccc32)cc1F [Example 240, 5-chloro-4-(3-chloro-5-(4-cyanophenyl)-1H-indazol-1-yl)-2-fluoro-N-(methylsulfonyl)benzamide]
2 | 133 nM | CS(=O)(=O)NC(=O)c1cc(Cl)c(-n2cc(Cl)c3cc(Cl)ccc32)cc1F [Example 266, 5-chloro-4-(3,5-dichloro-1H-indol-1-yl)-2-fluoro-N-(methylsulfonyl)benzamide]
3 | 51 nM | CS(=O)(=O)NC(=O)c1cc(Cl)c(-n2nc(-c3ccc(F)cc3)c3cc(Cl)ccc32)cc1F [Example 55, 5-chloro-4-(5-chloro-3-(4-fluorophenyl)-1H-indazol-1-yl)-2-fluoro-N-(methylsulfonyl)benzamide]
4 | > 10000 nM | Cc1nn(-c2cc(F)c(C(=O)NS(C)(=O)=O)cc2Cl)c2ccc(Cl)cc12 [Example 1, 5-chloro-4-(5-chloro-3-methyl-1H-indazol-1-yl)-2-fluoro-N-(methylsulfonyl)benzamide]
5 | 1210 nM | CS(=O)(=O)NC(=O)c1ccc(-n2nc(-c3ccccc3F)c3cc(Cl)ccc32)c(C#N)c1 [Example 102, 4-(5-chloro-3-(2-fluorophenyl)-1H-indazol-1-yl)-3-cyano-N-(methylsulfonyl)benzamide]
6 | 786 nM | CS(=O)(=O)NC(=O)c1cc(Cl)c(-n2ncc3c(Cl)c(OCc4ccccc4)ccc32)cc1F [Example 29, 4-(5-(benzyloxy)-4-chloro-1H-indazol-1-yl)-5-chloro-2-fluoro-N-(methylsulfonyl)benzamide]
7 | 3000 nM | COc1ncccc1-c1nn(-c2cc(Cl)c(C(=O)NS(C)(=O)=O)cc2F)c2ccc(Cl)cc12 [Example 116, 2-chloro-4-(5-chloro-3-(2-methoxypyridin-3-yl)-1H-indazol-1-yl)-5-fluoro-N-(methylsulfonyl)benzamide]
8 | > 10000 nM | N#Cc1cc(Cl)c(-n2nc(-c3ccc(Cl)cc3F)c3cc(Cl)ccc32)cc1F [Example 288, 5-chloro-4-(5-chloro-3-(4-chloro-2-fluorophenyl)-1H-indazol-1-yl)-2-fluorobenzonitrile]
9 | 187 nM | CS(=O)(=O)NC(=O)c1cc(Cl)c(-n2cc(Cl)c3c(OCc4ccccc4)cccc32)cc1F [Example 270, 4-(4-(benzyloxy)-3-chloro-1H-indol-1-yl)-5-chloro-2-fluoro-N-(methylsulfonyl)benzamide]
10 | 1080 nM | O=S(=O)(Nc1cscn1)c1cc(Cl)c(-n2nc(Cl)c3cc(C(F)(F)F)ccc32)cc1F [Example 280, 5-chloro-4-(3-chloro-5-(trifluoromethyl)-1H-indazol-1-yl)-2-fluoro-N-(thiazol-4-yl)benzenesulfonamide]
11 | 600 nM | CS(=O)(=O)NC(=O)c1cc(Cl)c(-n2nc(-c3ccc(Cl)cc3)c3cc(C4CC4)ccc32)cc1F [Example 85, 5-chloro-4-(3-(4-chlorophenyl)-5-cyclopropyl-1H-indazol-1-yl)-2-fluoro-N-(methylsulfonyl)benzamide]
12 | > 10000 nM | COC(=O)c1nn(-c2cc(F)c(C(=O)NS(C)(=O)=O)cc2Cl)c2cc(OCc3ccccc3)ccc12 [Example 46, methyl 6-(benzyloxy)-1-(2-chloro-5-fluoro-4-((methylsulfonyl)carbamoyl)phenyl)-1H-indazole-3-carboxylate]

Second part, the compound before the results:

Row | SMILES | IC50
13 | CS(=O)(=O)NC(=O)c1cc(Cl)c(-n2nc(Cl)c3cc(-c4cccnc4)ccc32)cc1F [Example 231, 5-chloro-4-(3-chloro-5-(pyridin-3-yl)-1H-indazol-1-yl)-2-fluoro-N-(methylsulfonyl)benzamide] | 3000 to 10000 nM
14 | Cc1cc(F)ccc1-c1cn(-c2cc(F)c(C(=O)NS(C)(=O)=O)cc2Cl)c2ncc(Cl)cc12 [Example 200, 5-chloro-4-(5-chloro-3-(4-fluoro-2-methylphenyl)-1H-pyrrolo[2,3-b]pyridin-1-yl)-2-fluoro-N-(methylsulfonyl)benzamide] | 90 nM
15 | Cn1cc(-c2nn(-c3cc(F)c(C(=O)NS(C)(=O)=O)cc3Cl)c3ccc(Cl)cc23)ccc1=O [Example 130, 5-chloro-4-(5-chloro-3-(1-methyl-6-oxo-1,6-dihydropyridin-3-yl)-1H-indazol-1-yl)-2-fluoro-N-(methylsulfonyl)benzamide] | > 10000 nM
16 | CS(=O)(=O)NC(=O)c1cc(Cl)c(-n2cc(Cl)c3cc(-c4cccc(F)c4)cnc32)cc1F [Example 262, 5-chloro-4-(3-chloro-5-(3-fluorophenyl)-1H-pyrrolo[2,3-b]pyridin-1-yl)-2-fluoro-N-(methylsulfonyl)benzamide] | 210 nM
17 | N#Cc1cc(S(=O)(=O)Nc2cscn2)ccc1-n1nc(Cl)c2cc(C(F)(F)F)ccc21 [Example 278, 4-(3-chloro-5-(trifluoromethyl)-1H-indazol-1-yl)-3-cyano-N-(thiazol-4-yl)benzenesulfonamide] | 8910 nM
18 | CS(=O)(=O)NC(=O)c1cc(Cl)c(-n2nc(Cl)c3cc(-c4cccc(C(F)(F)F)c4)ccc32)cc1F [Example 249, 5-chloro-4-(3-chloro-5-(3-(trifluoromethyl)phenyl)-1H-indazol-1-yl)-2-fluoro-N-(methylsulfonyl)benzamide] | 74 nM
19 | CS(=O)(=O)NC(=O)c1cc(Cl)c(-n2nc(-c3ccc(F)c(F)c3)c3cc(F)ccc32)cc1F [Example 161, 5-chloro-4-(3-(3,4-difluorophenyl)-5-fluoro-1H-indazol-1-yl)-2-fluoro-N-(methylsulfonyl)benzamide] | 120 nM
20 | CS(=O)(=O)NC(=O)c1cc(F)c(-n2nc(-c3ccc(F)cc3)c3cc(Cl)ccc32)cc1Cl [Example 112, 2-chloro-4-(5-chloro-3-(4-fluorophenyl)-1H-indazol-1-yl)-5-fluoro-N-(methylsulfonyl)benzamide] | 789 nM
21 | CS(=O)(=O)NC(=O)c1cc(Cl)c(-n2nc(Cl)c3cc(OCc4ccccc4F)ccc32)cc1F [Example 37, 5-chloro-4-(3-chloro-5-((2-fluorobenzyl)oxy)-1H-indazol-1-yl)-2-fluoro-N-(methylsulfonyl)benzamide] | 159 nM
22 | COc1ccc(-c2nn(-c3ccc(C(=O)NS(C)(=O)=O)cc3F)c3ccc(Cl)cc23)cc1 [Example 118, 4-(5-chloro-3-(4-methoxyphenyl)-1H-indazol-1-yl)-3-fluoro-N-(methylsulfonyl)benzamide] | 360 nM
23 | CS(=O)(=O)NC(=O)c1cc(Cl)c(-n2nc(-c3ccc(Cl)cc3)c3cc(F)ccc32)cc1F [Example 154, 5-chloro-4-(3-(4-chlorophenyl)-5-fluoro-1H-indazol-1-yl)-2-fluoro-N-(methylsulfonyl)benzamide] | 60 nM
24 | CS(=O)(=O)NC(=O)c1ccc(-n2nc(-c3ccc(C(F)(F)F)cc3)c3cc(Cl)ccc32)c(C#N)c1 [Example 99, 4-(5-chloro-3-(4-(trifluoromethyl)phenyl)-1H-indazol-1-yl)-3-cyano-N-(methylsulfonyl)benzamide] | 1340 nM
25 | CS(=O)(=O)NC(=O)c1cc(Cl)c(-n2cc(-c3ccc(C#N)cc3)c3cc(Cl)cnc32)cc1F [Example 187, 5-chloro-4-(5-chloro-3-(4-cyanophenyl)-1H-pyrrolo[2,3-b]pyridin-1-yl)-2-fluoro-N-(methylsulfonyl)benzamide] | 620 nM
26 | CS(=O)(=O)NC(=O)c1cc(Cl)c(-n2nc(-c3ccc(N)cc3)c3cc(Cl)ccc32)cc1F [Example 82, 4-(3-(4-aminophenyl)-5-chloro-1H-indazol-1-yl)-5-chloro-2-fluoro-N-(methylsulfonyl)benzamide] | 7910 nM
27 | COc1ccc(-c2nn(-c3cc(F)c(C(=O)NS(C)(=O)=O)cc3Cl)c3ccc(F)cc23)cc1 [Example 155, 5-chloro-2-fluoro-4-(5-fluoro-3-(4-methoxyphenyl)-1H-indazol-1-yl)-N-(methylsulfonyl)benzamide] | 110 nM
28 | CS(=O)(=O)NC(=O)c1cc(Cl)c(-n2nc(-c3cc(F)cc(Cl)c3)c3cc(F)ccc32)cc1F [Example 157, 5-chloro-4-(3-(3-chloro-5-fluorophenyl)-5-fluoro-1H-indazol-1-yl)-2-fluoro-N-(methylsulfonyl)benzamide] | 100 nM
29 | CS(=O)(=O)NC(=O)c1cc(Cl)c(-n2nc(Cl)c3cc(Nc4ccccc4)ccc32)cc1F [Example 27, 5-chloro-4-(3-chloro-5-(phenylamino)-1H-indazol-1-yl)-2-fluoro-N-(methylsulfonyl)benzamide] | 7710 nM
30 | Cc1cccc(-c2ccc3c(c2)c(Cl)nn3-c2cc(F)c(C(=O)NS(C)(=O)=O)cc2Cl)c1 [Example 233, 5-chloro-4-(3-chloro-5-(m-tolyl)-1H-indazol-1-yl)-2-fluoro-N-(methylsulfonyl)benzamide] | 68 nM
31 | CN(C)S(=O)(=O)NC(=O)c1cc(Cl)c(-n2nc(-c3ccc(Cl)cc3F)c3cc(Cl)ccc32)cc1F [Example 138, 5-chloro-4-(5-chloro-3-(4-chloro-2-fluorophenyl)-1H-indazol-1-yl)-N—(N,N-dimethylsulfamoyl)-2-fluorobenzamide] | 100 nM
32 | CCOC(=O)c1cnc(NC(=O)c2cc(Cl)c(-n3nc(-c4ccc(Cl)cc4F)c4cc(Cl)ccc43)cc2F)s1 [Example 296, ethyl 2-(5-chloro-4-(5-chloro-3-(4-chloro-2-fluorophenyl)-1H-indazol-1-yl)-2-fluorobenzamido)thiazole-5-carboxylate] | > 10000 nM
33 | CS(=O)(=O)NC(=O)c1cc(Cl)c(-n2nc(-c3cccc(F)c3)c3cc(Cl)ccc32)cc1F [Example 54, 5-chloro-4-(5-chloro-3-(3-fluorophenyl)-1H-indazol-1-yl)-2-fluoro-N-(methylsulfonyl)benzamide] | 26 nM
34 | COc1ccc(-c2cnc3c(c2)c(Cl)cn3-c2cc(F)c(C(=O)NS(C)(=O)=O)cc2Cl)cc1 [Example 260, 5-chloro-4-(3-chloro-5-(4-methoxyphenyl)-1H-pyrrolo[2,3-b]pyridin-1-yl)-2-fluoro-N-(methylsulfonyl)benzamide] | 470 nM
35 | CS(=O)(=O)NC(=O)c1cc(Cl)c(-n2nc(-c3cccc(Cl)c3F)c3cc(F)ccc32)cc1F [Example 163, 5-chloro-4-(3-(3-chloro-2-fluorophenyl)-5-fluoro-1H-indazol-1-yl)-2-fluoro-N-(methylsulfonyl)benzamide] | 120 nM
